# Test results published in PubChem BioAssay AID463206 (Broad Institute, 2010).
# The source made the active and inactive calls.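 How the source made its calls: active means caspase luminescence falls with dose and the half-maximal concentration AC50 from the fitted curve is at or below a set limit; inconclusive means flat fit at 30 to 70% signal loss, or invalid fit; inactive means AC50 above the limit, or signal rises instead.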
# Test system: INS-1E cytokine-induced caspase-3/7, Caspase-Glo luminescence, 48 h
# Assay: suppression of cytokine-driven beta-cell apoptosis – INS-1E rat cells, luminescence, orthogonal assay for beta-cell apoptosis protection project, dose response (AID 463206)
row,SMILES,AC50
1,N#CCSc1nc2ccccc2c2nc3ccccc3n12,> 26 µM (inactive)
2,CCC1CCCCN1C(=O)c1cc(COc2ccc(-n3cncn3)cc2)on1 (stereo not drawn),> 26 µM (inactive)
3,Cc1ccc(S(=O)(=O)Nc2ccc(O)c3ccccc23)c(C)c1,> 26 µM (inactive)
4,O=C1C=C(Nc2ccc(O)cc2)C(=O)c2ccccc21,> 26 µM (inactive)
5,Nc1nc(N)c2cc(Sc3ccc4ccccc4c3)ccc2n1,> 26 µM (inactive)
6,CCn1c(-c2ccc(C)cc2)nn(CC(=O)NCCc2ccccc2)c1=S,> 26 µM (inactive)
7,CCOC(=O)c1cccc(-[n+]2c(-c3ccccc3)cc(-c3ccccc3)cc2-c2ccccc2)c1,> 26 µM (inactive)
8,COC(=O)c1ccc2[nH]c3cccc(/C(=C/c4ccccc4)c4ccccc4)c3c2c1,> 26 µM (inactive)
9,CCCCC(=O)NC(c1ccc(N(C)C)cc1)c1ccc2cccnc2c1O (stereo not drawn),> 26 µM (inactive)
10,COc1cccc(/C=N/Nc2ccc([N+](=O)[O-])cn2)c1O,> 26 µM (inactive)
11,O=C(NNc1c(Cl)cc(Cl)cc1Cl)c1cccc([N+](=O)[O-])c1,> 26 µM (inactive)
12,C=C(C)C(=O)N1CC2(CC(c3cccc(NC(=O)COc4ccc(Cl)cc4)c3)=NO2)C[C@@H]1C(N)=O (stereo partly drawn),> 26 µM (inactive)
13,O=C(NCc1ccccn1)c1cc(-c2ccc(Cl)cc2)oc1C(F)(F)F,> 26 µM (inactive)
14,CC(C)(C)c1ccc(C(O)CCCN2CCC(C(O)(c3ccccc3)c3ccccc3)CC2)cc1 (stereo not drawn),> 26 µM (inactive)
15,Cn1nnnc1Sc1ncnc2scc(-c3cc4ccccc4o3)c12,> 26 µM (inactive)
16,CCOc1ccc(-c2c[n+]3c(n2-c2ccccc2)CCCCC3)cc1,> 26 µM (inactive)
17,COc1ccc(C2C(C#N)=C(N)Oc3c2ccc2cccnc32)cc1OC (stereo not drawn),> 12 µM (inactive)
18,Cc1ccc(NC(=O)Cn2c(O)c(N=NC(=O)c3cc4ccccc4cc3O)c3ccccc32)cc1,> 26 µM (inactive)
19,O=C(Nc1cc(Sc2ccccn2)cc([N+](=O)[O-])c1)c1cccc(F)c1,> 26 µM (inactive)
20,O=C1C(Cl)=C(NCCN2CCCCC2)C(=O)c2ccccc21,> 26 µM (inactive)
21,FC(F)(F)c1ccc(CN2C[C@@H]3C(c4ccc(C(F)(F)F)cc4)C4(c5cccnc5)CC3(C4)[C@H]2c2ccccc2)cc1 (stereo partly drawn),> 26 µM (inactive)
22,CCN(CC)c1ccc(/C=N/NC(=O)CCC(=O)NCc2ccccc2)c(O)c1,> 26 µM (inactive)
23,COc1ccc(O)c(/C=N/NC(=O)c2ccc(OCc3cccc(Br)c3)cc2)c1,> 26 µM (inactive)
24,Cc1ccc(-n2cccc2C(=S)N=P(N(C)C)(N(C)C)N(C)C)cc1,> 26 µM (inactive)

row,SMILES,AC50
1,C/C(=N/NC(=O)c1cccs1)c1c(C)[nH]n(-c2nc3ccccc3s2)c1=O,> 26 µM (inactive)
2,CS(=O)(=O)N(CC(=O)Nc1ccc(CC#N)cc1)c1ccc(C23CC4CC(CC(C4)C2)C3)cc1,> 26 µM (inactive)
3,CC(=O)OC1COC(OC2C(O)C(C)OC(OC3C(OC4CCC5(C)C(CCC6(C)C5CC=C5C7CC(C)(C)CCC7(C(=O)O)CCC56C)C4(C)CO)OCC(O)C3O)C2O)C(O)C1OC(C)=O (stereo not drawn),> 26 µM (inactive)
4,Cc1cc2nc(-c3ccc[nH]c3=O)[nH]c2cc1C,> 26 µM (inactive)
5,c1ccc2c(CN3CCCCCCC3)c[nH]c2c1,> 26 µM (inactive)
6,O=c1cc(CSc2ccc(Cl)cc2)nc(-c2ccccn2)[nH]1,> 26 µM (inactive)
7,O=C(Nc1cccnc1)c1cccs1,> 26 µM (inactive)
8,O=C(Nc1ccc(OC(F)(F)F)cc1)Nc1cccc([N+](=O)[O-])c1,> 26 µM (inactive)
9,CCOc1ccc(S(=O)(=O)N2CCCCC2)cc1NC(=O)CN1CCCC1c1cccs1 (stereo not drawn),> 26 µM (inactive)
10,CC(=O)c1cn(CCOc2cc(C)ccc2C)c2ccccc12,> 26 µM (inactive)
11,COc1ccc(CN2CCN(CCSc3ccc(C)cc3)CC2)c(OC)c1OC,> 26 µM (inactive)
12,Cc1nc2ccccc2cc1OCc1ccc(F)cc1,> 26 µM (inactive)
13,Cc1ccccc1NC(=S)N/N=C/c1ccc(O)cc1O,> 26 µM (inactive)
14,Cc1nn(S(=O)(=O)c2ccc(Cl)cc2)c(C)c1Sc1ccc([N+](=O)[O-])cc1,> 26 µM (inactive)
15,COC(=O)c1sccc1S(=O)(=O)Nc1ccc(N2CCCCC2)cc1,> 26 µM (inactive)
16,CCN(CC)S(=O)(=O)c1ccc(NC(=O)Nc2cccc(C(F)(F)F)c2)cc1,> 26 µM (inactive)
17,Cc1ccc(N=Nc2c(O)ccc3n[nH]nc23)cc1,> 26 µM (inactive)
18,CCN(CC)S(=O)(=O)c1ccc(N/N=C/c2cc(OC)ccc2O)nc1,> 26 µM (inactive)
19,COc1ccc(C(C(=O)NC2CCCCC2)N(C(=O)CCl)c2cccc(Cl)c2)cc1 (stereo not drawn),> 26 µM (inactive)
20,COc1ccc(OC)c2sc(N(CCCN(C)C)C(=O)c3ccc(S(=O)(=O)N4CCc5ccccc5C4)cc3)nc12,> 26 µM (inactive)
21,CCn1c(C)nc2cc(-c3nnc(-c4c(-c5ccccc5)noc4C)o3)ccc21,> 26 µM (inactive)
22,Cc1ccc(-c2nn(-c3ccccc3)cc2/C=N/NC(=O)c2ccc3c(c2)OCO3)cc1,> 26 µM (inactive)
23,Cn1c(=O)[nH]c(=O)c2c1nc(N1CCN(C(c3ccccc3)c3ccccc3)CC1)n2CCO,> 26 µM (inactive)
24,O=C(CCl)N(c1ccccc1)C1CCCCC1,> 26 µM (inactive)

row,SMILES,AC50
1,O=C(N/N=C/c1cc([N+](=O)[O-])ccc1O)c1cc(-c2ccccc2)nc2ccccc12,> 26 µM (inactive)
2,Cc1cc(N2CCC(C)CC2)nc(NCc2ccccc2)n1,19.6 µM
3,O=C(/C=C/c1ccc(F)cc1)NC(=S)NNC(=O)c1cnccn1,> 26 µM (inactive)
4,NC(N)=NC(N)=Nc1ccc(SC(F)(F)F)cc1,> 26 µM (inactive)
5,CCCCCCCCNC(C)C(O)c1ccc(SC(C)C)cc1 (stereo not drawn),> 26 µM (inactive)
6,O=C(NC(c1cccnc1)C(F)(F)F)c1cc(COc2ccc3c(c2)CCCC3)on1 (stereo not drawn),> 26 µM (inactive)
7,CC(=O)Nc1ccc(S(=O)(=O)NC2=C(N3CCN(c4ccc(F)cc4)CC3)C(=O)c3ccccc3C2=O)cc1,> 26 µM (inactive)
8,CCn1c(NN=O)nc2ccccc21,> 26 µM (inactive)
9,CCCCCCCCCC[N+](C)(C)CC/C=C1/c2ccccc2Sc2ccc(Cl)cc21,> 26 µM (inactive)
10,Cc1cc(N/N=C\c2ccc(Br)cc2)nc(-n2nc(C)cc2C)n1,> 26 µM (inactive)
11,C=CCSc1nc2ccccc2n1C(=O)/C=C/c1ccc(OC)c(OC)c1,> 26 µM (inactive)
12,O=C(N/N=C/c1ccc(O)c2ncccc12)c1cccc(Br)c1,> 26 µM (inactive)
13,Cc1ccc(C)c(NS(=O)(=O)c2ccc(OCC(=O)NCc3cccnc3)cc2)c1,> 26 µM (inactive)
14,COc1cnc(-c2ccccn2)nc1Oc1ccc(Cl)c2ccccc12,> 26 µM (inactive)
15,COc1ccc2c(C(=O)NCc3ccc4c(c3)OCO4)c(-c3ccc(S(C)(=O)=O)cc3)sc2c1,> 26 µM (inactive)
16,O=C(c1ccccc1)C(CCC(CN1CCOCC1)C(=O)c1ccccc1)CN1CCOCC1 (stereo not drawn),> 26 µM (inactive)
17,COc1ccccc1C(NC(C)=O)c1cc(Cl)c2cccnc2c1O (stereo not drawn),> 26 µM (inactive)
18,CC(C)Oc1ccc(S(=O)(=O)N2CCCCC2)cc1NC(=O)CN1CCCC1c1cccs1 (stereo not drawn),> 26 µM (inactive)
19,O=C(CNc1ccc(F)cc1)N/N=C/c1c(O)ccc2ccccc12,> 26 µM (inactive)
20,CCn1cc(C(=O)O)c(=O)c2cc(F)c(N/N=C/c3ccccc3[N+](=O)[O-])cc21,> 12 µM (inactive)
21,CCN(CC)S(=O)(=O)c1cccc(NC(=O)Nc2cccc(C(F)(F)F)c2)c1,> 26 µM (inactive)
22,Cc1c(/C=N/Nc2nc3ccccc3[nH]2)c2ccccc2n1C,> 26 µM (inactive)
23,CCN1CCN(Cc2ccc(NC(=O)c3cc(NC(=O)c4cncc(-c5ccc(C#N)cc5)c4)cc(OC)c3)cc2C(F)(F)F)CC1,> 26 µM (inactive)
24,CCCCCCCCCCCCCCCC[N+](C)(C)C,> 26 µM (inactive)

row,SMILES,AC50
1,CC1=C(C)/C(=N\OS(=O)(=O)c2ccc(C)cc2)C=CC1=O,> 26 µM (inactive)
2,N#Cc1c([N+](=O)[O-])cc([N+](=O)[O-])cc1S(=O)(=O)Cc1ccccc1,> 26 µM (inactive)
3,CCCCNc1cc(C)nc(NCc2ccccc2)n1,> 26 µM (inactive)
4,O=C(Nc1nc(-c2ccccn2)cs1)c1cccc(-n2cnnn2)c1,> 26 µM (inactive)
5,COc1ccc(N(C)S(=O)(=O)c2cccc(C(=O)Nc3nc(C)c(C(C)=O)s3)c2)cc1,> 26 µM (inactive)
6,CCOC(=O)c1cnc(-n2nc(C)cc2C)nc1Nc1ccc(N(C)C)cc1,> 26 µM (inactive)
7,CCC1(c2ccc(F)cc2)NC(=O)N(CC(=O)Nc2ccc(-c3nc4ccc(C)cc4s3)cc2)C1=O (stereo not drawn),> 26 µM (inactive)
8,CCOc1cccc(/C=N/NC(=O)c2cc(C3CC3)[nH]n2)c1O,> 26 µM (inactive)
9,Cc1cccc2cc(-c3ccccc3)c(-c3ccccc3)c[n+]12,> 26 µM (inactive)
10,O=[N+]([O-])/C=C/c1ccc2c(ccn2Cc2ccccc2)c1,> 26 µM (inactive)
11,O=C(Nc1ccc(Cl)c(Cl)c1)Nc1nnc(CC2=CCCCC2)s1,> 26 µM (inactive)
12,O=C(Nc1ccc(OC(F)F)cc1)Nc1cccc(C(F)(F)F)c1,> 26 µM (inactive)
13,CCOc1ccc(OCc2ccc(C(=O)NN=Cc3ccc[nH]3)cc2)cc1,> 26 µM (inactive)
14,Cc1ccc(C#CC[N+]2(CC#Cc3ccc(C)cc3)CCCCC2)cc1,> 26 µM (inactive)
15,Cc1nnc(N/N=C/c2cc([N+](=O)[O-])c(N3CCC(C)CC3)cc2N2CCC(C)CC2)n1N,> 26 µM (inactive)
16,CC(C)(C)c1cc[n+](C2=C([O-])c3ccccc3C(=O)/C2=N\S(=O)(=O)c2cccs2)cc1,> 26 µM (inactive)
17,O=C(CN1C(=O)c2ccccc2S1(=O)=O)c1ccc(F)cc1,> 26 µM (inactive)
18,COc1ccc(/C=N/N2CCN(Cc3ccccc3)CC2)cc1,> 26 µM (inactive)
19,Brc1ccc(CN2CCN(Cc3c[nH]c4ccccc34)CC2)cc1,> 26 µM (inactive)
20,Cc1[nH]c2c(ccc3ccccc32)c1C1C(CCN)C1(C)C (stereo not drawn),> 26 µM (inactive)
21,COc1ccc(C)cc1Nc1n[n+](-c2ccccc2)c(-c2ccc(N(C)C)cc2)s1,> 26 µM (inactive)
